Results as given in PubChem BioAssay AID1963861 (Molecular Pharmacology Branch, DTP, NCI, 2024).

Test system: 885724-159-R-J1-PDC KRAS PDC multicell spheroid viability
Assay: Anticancer human tumor 885724-159-R-J1-PDC patient-derived pancreatic adenocarcinoma cell line growth inhibition [KRAS2]
Settings: for IC50: curve of first compound; for viability, T/C: stronger effect = lower value
Outline: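 KRAS-mutant tumor cells were grown as spheroids with HUVEC endothelial cells and human MSCs as stroma. Targeted agents were tested alone and with KRAS pathway inhibitors. Doses started at or near clinical Cmax, or 10 microM, descending half-log.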

[1] = second compound 0.0316 µM, first compound 0.000316 µM
[2] = second compound 0.0316 µM, first compound 0.001 µM
[3] = second compound 0.0316 µM, first compound 0.00316 µM
[4] = second compound 0.0316 µM, first compound 0.01 µM
[5] = second compound 0.0316 µM, first compound 0.0316 µM
[6] = second compound 0.1 µM, first compound 0.000316 µM
[7] = second compound 0.1 µM, first compound 0.001 µM
[8] = second compound 0.1 µM, first compound 0.00316 µM
[9] = second compound 0.1 µM, first compound 0.01 µM
[10] = second compound 0.1 µM, first compound 0.0316 µM
[11] = second compound 0.316 µM, first compound 0.000316 µM
[12] = second compound 0.316 µM, first compound 0.001 µM
[13] = second compound 0.316 µM, first compound 0.00316 µM
[14] = second compound 0.316 µM, first compound 0.01 µM
[15] = second compound 0.316 µM, first compound 0.0316 µM
[16] = second compound 1 µM, first compound 0.000316 µM
[17] = second compound 1 µM, first compound 0.001 µM
[18] = second compound 1 µM, first compound 0.00316 µM
[19] = second compound 1 µM, first compound 0.01 µM
[20] = second compound 1 µM, first compound 0.0316 µM
[21] = second compound 3.16 µM, first compound 0.000316 µM
[22] = second compound 3.16 µM, first compound 0.001 µM
[23] = second compound 3.16 µM, first compound 0.00316 µM
[24] = second compound 3.16 µM, first compound 0.01 µM
[25] = second compound 3.16 µM, first compound 0.0316 µM
[26] = second compound 0.0316 µM, first compound 0.1 µM
[27] = second compound 0.1 µM, first compound 0.1 µM
[28] = second compound 0.316 µM, first compound 0.1 µM
[29] = second compound 1 µM, first compound 0.1 µM
[30] = second compound 3.16 µM, first compound 0.1 µM
[31] = second compound 0.0316 µM, first compound 0.316 µM
[32] = second compound 0.0316 µM, first compound 1 µM
[33] = second compound 0.0316 µM, first compound 3.16 µM
[34] = second compound 0.0316 µM, first compound 10 µM
[35] = second compound 0.1 µM, first compound 0.316 µM
[36] = second compound 0.1 µM, first compound 1 µM
[37] = second compound 0.1 µM, first compound 3.16 µM
[38] = second compound 0.1 µM, first compound 10 µM
[39] = second compound 0.316 µM, first compound 0.316 µM
[40] = second compound 0.316 µM, first compound 1 µM
[41] = second compound 0.316 µM, first compound 3.16 µM
[42] = second compound 0.316 µM, first compound 10 µM
[43] = second compound 1 µM, first compound 0.316 µM
[44] = second compound 1 µM, first compound 1 µM
[45] = second compound 1 µM, first compound 3.16 µM
[46] = second compound 1 µM, first compound 10 µM
[47] = second compound 3.16 µM, first compound 0.316 µM
[48] = second compound 3.16 µM, first compound 1 µM
[49] = second compound 3.16 µM, first compound 3.16 µM
[50] = second compound 3.16 µM, first compound 10 µM
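Note: spheroids exposed to agents for 7 days before readout.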

In the case of `CC(=O)Nc1cccc(-n2c(=O)n(C3CC3)c(=O)c3c(Nc4ccc(I)cc4F)n(C)c(=O)c(C)c32)c1` + C=CC(=O)N1CCN(c2nc(OCC3CCCN3C)nc3c2CCN(c2cccc4cccc(C)c24)C3)CC1CC#N, the IC50 (second compound 0.0316 µM) is reported as 1.33 nM, the IC50 (second compound 0.1 µM) is reported as 1.48 nM and the IC50 (second compound 0.316 µM) is reported as 0.933 nM. It also gave an IC50 (second compound 1 µM) of 0.625 nM, an IC50 (second compound 3.16 µM) of less than 0.1 nM and a viability, T/C (second compound 0.0316 µM, first compound 0.0001 µM) of 107%. It also gave a viability, T/C [1] of 78.7%, a viability, T/C [2] of 51.3% and a viability, T/C [3] of 38.5%. The viability, T/C [4] was 31%, the viability, T/C [5] was 20.8% and the viability, T/C (second compound 0.1 µM, first compound 0.0001 µM) was 92.3%. It also gave a viability, T/C [6] of 84%, a viability, T/C [7] of 54.2% and a viability, T/C [8] of 37.3%. It also gave a viability, T/C [9] of 28.9%, a viability, T/C [10] of 20.4% and a viability, T/C (second compound 0.316 µM, first compound 0.0001 µM) of 92.6%. For the same compound, the viability, T/C [11] was 74.8%, the viability, T/C [12] was 45.1% and the viability, T/C [13] was 34.8%. For the same compound, the viability, T/C [14] was 28.7%, the viability, T/C [15] was 20.4% and the viability, T/C (second compound 1 µM, first compound 0.0001 µM) was 85.1%. It also gave a viability, T/C [16] of 64.3%, a viability, T/C [17] of 39.5% and a viability, T/C [18] of 27.7%. The viability, T/C [19] was 21.8%, the viability, T/C [20] was 18.6% and the viability, T/C (second compound 3.16 µM, first compound 0.0001 µM) was 45.4%. For the same compound, the viability, T/C [21] was 37.8%, the viability, T/C [22] was 18.8% and the viability, T/C [23] was 18.8%. The viability, T/C [24] was 5.46% and the viability, T/C [25] was 8.49%.
With `CN(C)C/C=C/C(=O)Nc1cc2c(Nc3ccc(F)c(Cl)c3)ncnc2cc1O[C@H]1CCOC1` + C=CC(=O)N1CCN(c2nc(OCC3CCCN3C)nc3c2CCN(c2cccc4cccc(C)c24)C3)CC1CC#N the IC50 (second compound 0.0316 µM) was greater than 100 nM, the IC50 (second compound 0.1 µM) was greater than 100 nM and the IC50 (second compound 0.316 µM) was greater than 100 nM. For the same compound, the IC50 (second compound 1 µM) was greater than 100 nM, the IC50 (second compound 3.16 µM) was 1.57 nM and the viability, T/C [1] was 116%. For the same compound, the viability, T/C [2] was 112%, the viability, T/C [3] was 98.5% and the viability, T/C [4] was 94.5%. It also gave a viability, T/C [5] of 89.1%, a viability, T/C [26] of 80.3% and a viability, T/C [6] of 109%. The viability, T/C [7] was 101%, the viability, T/C [8] was 96.5% and the viability, T/C [9] was 83.1%. For the same compound, the viability, T/C [10] was 77.4%, the viability, T/C [27] was 72% and the viability, T/C [11] was 105%. The viability, T/C [12] was 106%, the viability, T/C [13] was 92.4% and the viability, T/C [14] was 84.1%. It also gave a viability, T/C [15] of 72%, a viability, T/C [28] of 65.7% and a viability, T/C [16] of 95%. For the same compound, the viability, T/C [17] was 100%, the viability, T/C [18] was 86.8% and the viability, T/C [19] was 78.4%. For the same compound, the viability, T/C [20] was 68.7%, the viability, T/C [29] was 63.9% and the viability, T/C [21] was 61.5%. For the same compound, the viability, T/C [22] was 55.9%, the viability, T/C [23] was 40.8% and the viability, T/C [24] was 37.7%. The viability, T/C [25] was 36.4% and the viability, T/C [30] was 37.7%.
Work on `COC(=O)c1ccc2c(C(=Nc3ccc(N(C)C(=O)CN4CCN(C)CC4)cc3)c3ccccc3)c(O)[nH]c2c1` + C=CC(=O)N1CCN(c2nc(OCC3CCCN3C)nc3c2CCN(c2cccc4cccc(C)c24)C3)CC1CC#N yielded an IC50 (second compound 0.0316 µM) of 2080 nM, an IC50 (second compound 0.1 µM) of 1860 nM and an IC50 (second compound 0.316 µM) of 1710 nM. The IC50 (second compound 1 µM) was 1680 nM, the IC50 (second compound 3.16 µM) was 431 nM and the viability, T/C [5] was 100%. For the same compound, the viability, T/C [26] was 104%, the viability, T/C [31] was 101% and the viability, T/C [32] was 94.5%. For the same compound, the viability, T/C [33] was 24.4%, the viability, T/C [34] was 0.81% and the viability, T/C [10] was 100%. The viability, T/C [27] was 97%, the viability, T/C [35] was 98.5% and the viability, T/C [36] was 85.1%. The viability, T/C [37] was 19.9%, the viability, T/C [38] was 0.65% and the viability, T/C [15] was 100%. The viability, T/C [28] was 100%, the viability, T/C [39] was 91.5% and the viability, T/C [40] was 83.8%. The viability, T/C [41] was 11.3%, the viability, T/C [42] was 0.77% and the viability, T/C [20] was 90.4%. The viability, T/C [29] was 91.4%, the viability, T/C [43] was 85.9% and the viability, T/C [44] was 84.5%. For the same compound, the viability, T/C [45] was 7.97%, the viability, T/C [46] was 0.43% and the viability, T/C [25] was 58.4%. The viability, T/C [30] was 51.1%, the viability, T/C [47] was 54.1% and the viability, T/C [48] was 38%. For the same compound, the viability, T/C [49] was 1.11% and the viability, T/C [50] was 0.32%.
For `O=C(c1cc(Cc2n[nH]c(=O)c3ccccc23)ccc1F)N1CCN(C(=O)C2CC2)CC1` + C=CC(=O)N1CCN(c2nc(OCC3CCCN3C)nc3c2CCN(c2cccc4cccc(C)c24)C3)CC1CC#N, the IC50 (second compound 0.0316 µM) was greater than 10000 nM, the IC50 (second compound 0.1 µM) was greater than 10000 nM and the IC50 (second compound 0.316 µM) was greater than 10000 nM. The IC50 (second compound 1 µM) was greater than 10000 nM, the IC50 (second compound 3.16 µM) was 4940 nM and the viability, T/C [5] was 127%. It also gave a viability, T/C [26] of 120%, a viability, T/C [31] of 119% and a viability, T/C [32] of 119%. The viability, T/C [33] was 112%, the viability, T/C [34] was 96.7% and the viability, T/C [10] was 122%. The viability, T/C [27] was 118%, the viability, T/C [35] was 117% and the viability, T/C [36] was 109%. The viability, T/C [37] was 104%, the viability, T/C [38] was 93% and the viability, T/C [15] was 111%. The viability, T/C [28] was 115%, the viability, T/C [39] was 113% and the viability, T/C [40] was 108%. The viability, T/C [41] was 99%, the viability, T/C [42] was 101% and the viability, T/C [20] was 112%. For the same compound, the viability, T/C [29] was 116%, the viability, T/C [43] was 106% and the viability, T/C [44] was 108%. It also gave a viability, T/C [45] of 108%, a viability, T/C [46] of 89% and a viability, T/C [25] of 66.9%. It also gave a viability, T/C [30] of 65%, a viability, T/C [47] of 60.5% and a viability, T/C [48] of 58%. For the same compound, the viability, T/C [49] was 58.3% and the viability, T/C [50] was 40.8%.
